Laboratory results: patent US10167311B2, “Boronic acid esters and pharmaceutical formulations thereof” (OHIO STATE INNOVATION FOUNDATION, priority 2014, dated 2019)
Read-outs that look alike come from different tables or passages of the source.

Columns and labels:
[1] = Encapsulation (drug entrapment / loading) efficiency of liposomes, Sepharose CL-4B fractions, UV-vis OD 270 nm; assay type: physicochemical; conditions: liposomal formulation; drug in liposome fractions / total drug fractions
Method: The liposome particle size distribution is determined through dynamic light scattering on a NICOMP Submicron Particle Sizer Model 370. The encapsulation efficiency was examined by a UV-visible spectrophotometer as the OD at 270 nm after 1:9 methanol extraction of fractions from the Sepharose CL-4B column (FIG. 1). A reference measurement was also taken of the OD at 450 nm without methanol extraction (FIG. 1). Then, the ratio of total amount of drug content in the liposome fractions to total drug fractions was calculated. In this example, a drug entrapment of 41% was obtained. The liposome particle size distribution was determined through dynamic light scattering on a NICOMP Submicron Particle Sizer Model 370. The encapsulation efficiency was examined by a UV-visible spectrophotometer as the OD at 270 nm after 1:9 methanol dissolution of fractions collected from the Sepharose column. A reference measurement was also taken of the OD at 450 nm without methanol dissolution. Then, the ratio of total amount of drug content in the liposome fractions to total drug fractions was calculated. […] The liposome particle size distribution was determined through dynamic light scattering on a NICOMP Submicron Particle Sizer Model 370. […] Then, the ratio of total amount of drug content in the liposome fractions to total drug fractions was calculated. […] Each fraction was analyzed by UV-vis spectrophotometry. […]

MV4-11 AML cells = test: Survival of MV4-11 engrafted NSG mice; assay type: in vivo; conditions: liposomal formulation, 1 mg/kg twice a week
Method: The therapeutic activity of BTZ-MEGA-CHOL was also investigated using animal studies. NSG mice were injected with 5×10^5 MV4-11 AML cells. The mice were divided into two groups of 10 each (Trial I), and were treated with empty liposomes or the liposomal formulation of BTZ-MEGA-CHOL at 1 mg/kg, twice a week, by tail vein injection. The study was repeated once with 5 mice in each group (Trial II). Three mice from each group were sacrificed after 4 weeks of treatment in Trial I for further analysis.
For Trial I, the p value was 0.0007 (FIG. 9). For Trial II the p value was 0.0019 (FIG. 10). When the data set was viewed as a combination, the p value was <0.0001 and median survival of the mice was 28 days for the empty liposome treated (control) group and 39 days for the BTZ-MEGA-CHOL treated group (FIG. 11).

[2] = Pharmacokinetics in plasma after i.v. administration (boron by ICP-OES); assay type: in vivo; conditions: ICR mice, i.v. 1.0 mg/kg, two-compartment model, mean ± SD (n = 3)
Method: The Pharmacokinetics of L-BTZ was studied in ICR mice (Charles River Lab, Wilmington, Mass.). The PK profile of free BTZ was also determined. Mice were given intravenous injections of free BTZ or L-BTZ at 1.0 mg/kg body weight via tail vein. At selected time intervals, a minimum of 100 μL […] was collected from each mouse using heparin-containing tubes. Plasma was then isolated by centrifugation at 3000× g for 5 min. The drug concentration in plasma was determined by measuring Boron concentration through an inductively coupled plasma-optical emission spectrometer (ICP-OES). The Boron extraction and sample preparation has been described previously. The pharmacokinetic parameters of free BTZ and L-BTZ were calculated using WinNonlin software and a two-compartment model and are shown in Table 1.

[3] = cited from earlier work

Row | Compound | drug entrapment (encapsulation efficiency) [1] | median survival (MV4-11 AML cells; tail vein, Trial I and II combined, p <0.0001 vs empty liposomes (28 days)) | survival of mice (MV4-11 AML cells; Trial I p 0.0007, Trial II p 0.0019) | T1/2α [2] | T1/2β [2] | AUC ([2]; mouse, iv) | clearance ([2]; mouse, iv) | maximum tolerated dose ([3]; intravenous bolus on days 1, 4, 8, and 11 of a 3-week cycle) | maximum tolerated dose ([3]; patients with solid tumors, intravenously once or twice weekly)
1 | CC(C)CCC[C@@H](C)C1CCC2C3CC=C4C[C@@H](OC(=O)N(C)CC(O)[C@H]5OB([C@H](CC(C)C)NC(=O)[C@H](Cc6ccccc6)NC(=O)c6cnccn6)O[C@@H]5C(O)CO)CC[C@]4(C)C3CC[C@@]21C (stereo partly drawn) [BTZ-MEGA-CHOL] | 80.11% | 39 days | significant increase in survival |  |  |  |  |  | 
2 | CC(C)C[C@H](NC(=O)[C@H](Cc1ccccc1)NC(=O)c1cnccn1)B(O)O [Free BTZ, Bortezomib] |  |  |  | 6 ± 1.2 min | 18.26 ± 13.33 h | 2870 ± 1340 ng·h/mL | 5.8 mL/min/kg | 1.56 mg/m^2 | 1.3 mg/m^2
